Reference: PubChem BioAssay AID248 (DTP/NCI, 2004)
Inconclusive results and toxic doses are left out.

Tested on: L1210 leukemia ip in BDF1 mice, survival T/C
Assay: NCI In Vivo Anticancer Drug Screen. Data for tumor model L1210 Leukemia (intraperitoneal) in B6D2F1 (BDF1) mice
Conditions: endpoint: mean survival time, higher = longer survival
Procedure, shortened: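 Antitumor effect is assessed in tumor-bearing animals. Survival in the compound arm is compared with a vehicle-dosed control arm and expressed as their quotient.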

[1] = dose: 50.0 mg/kg/injection, schedule: Q01DX009 (ip), vehicle: saline
[2] = dose: 100.0 mg/kg/injection, schedule: Q04DX003 (ip), vehicle: saline
[3] = dose: 100.0 mg/kg/injection, schedule: Q04DX002 (ip), vehicle: Klucel (hydroxypropylcellulose) (HPC)
[4] = dose: 200.0 mg/kg/injection, schedule: Q04DX002 (ip), vehicle: Klucel (hydroxypropylcellulose) (HPC)
[5] = dose: 400.0 mg/kg/injection, schedule: Q04DX002 (ip), vehicle: Klucel (hydroxypropylcellulose) (HPC)
[6] = dose: 100.0 mg/kg/injection, schedule: Q01DX001 (ip), vehicle: saline with Tween-80
[7] = dose: 200.0 mg/kg/injection, schedule: Q01DX001 (ip), vehicle: saline with Tween-80
[8] = dose: 400.0 mg/kg/injection, schedule: Q01DX001 (ip), vehicle: saline with Tween-80
[9] = dose: 100.0 mg/kg/injection, schedule: Q04DX003 (ip), vehicle: Klucel (hydroxypropylcellulose) (HPC)
[10] = dose: 200.0 mg/kg/injection, schedule: Q04DX003 (ip), vehicle: Klucel (hydroxypropylcellulose) (HPC)
[11] = dose: 400.0 mg/kg/injection, schedule: Q04DX003 (ip), vehicle: Klucel (hydroxypropylcellulose) (HPC)

CN(C)CN(C)C
T/C (dose: 25.0 mg/kg/injection, schedule: Q01DX001 (ip), vehicle: saline): 98 % of control
T/C (dose: 25.0 mg/kg/injection, schedule: Q01DX009 (ip), vehicle: saline): 89 % of control
T/C (dose: 25.0 mg/kg/injection, schedule: Q04DX003 (ip), vehicle: saline): 100 % of control
T/C (dose: 50.0 mg/kg/injection, schedule: Q01DX001 (ip), vehicle: saline): 102 % of control
T/C [1]: 100 % of control
T/C (dose: 50.0 mg/kg/injection, schedule: Q04DX003 (ip), vehicle: saline): 100 % of control
T/C [2]: 102 % of control

CNc1ccccc1C(=O)N/N=C\c1ccc(Cl)cc1Cl
T/C [3]: 105 % of control
T/C [4]: 94 % of control
T/C [5]: 97 % of control

COc1cc2c(c(OC)c1OC)-c1ccc(SC)c(=O)cc1[C@@H](NC1OC(CO)C(O)C(O)C1O)CC2 (some centres not stated)
T/C (dose: 25.0 mg/kg/injection, schedule: Q01DX005 (ip), vehicle: saline): 102 % of control
T/C [1]: 150 % of control
T/C (dose: 75.0 mg/kg/injection, schedule: Q01DX009 (ip), vehicle: saline): 95 % of control
T/C (dose: 150.0 mg/kg/injection, schedule: Q01DX005 (ip), vehicle: saline): 120 % of control

CCOC(=O)c1c[nH]c2cc(OCC(C)C)c(OCC(C)C)cc2c1=O
T/C [6]: 104 % of control
T/C [7]: 100 % of control
T/C [8]: 86 % of control

COc1ccc(S(=O)(=O)F)cc1C(=O)O
T/C [6]: 100 % of control
T/C (dose: 100.0 mg/kg/injection, schedule: Q01DX009 (ip), vehicle: saline with Tween-80): 100 % of control
T/C (dose: 100.0 mg/kg/injection, schedule: Q04DX002 (ip), vehicle: saline with Tween-80): 90 % of control
T/C (dose: 100.0 mg/kg/injection, schedule: Q04DX003 (ip), vehicle: saline with Tween-80): 94 % of control
T/C [7]: 92 % of control
T/C (dose: 200.0 mg/kg/injection, schedule: Q01DX009 (ip), vehicle: saline with Tween-80): 100 % of control
T/C (dose: 200.0 mg/kg/injection, schedule: Q04DX002 (ip), vehicle: saline with Tween-80): 113 % of control
T/C (dose: 200.0 mg/kg/injection, schedule: Q04DX003 (ip), vehicle: saline with Tween-80): 97 % of control
T/C [8]: 94 % of control
T/C (dose: 400.0 mg/kg/injection, schedule: Q04DX002 (ip), vehicle: saline with Tween-80): 86 % of control
T/C (dose: 400.0 mg/kg/injection, schedule: Q04DX003 (ip), vehicle: saline with Tween-80): 88 % of control

CO/C(=N\S(=O)(=O)c1ccccc1)C1CC=CCC1/C(=N\S(=O)(=O)c1ccccc1)OC (configuration not stated)
T/C [9]: 100 % of control
T/C [10]: 94 % of control
T/C [11]: 100 % of control

CCOC(=O)CNC(=O)C(OC(C)=O)C(OC(C)=O)C(=O)O (configuration not stated)
T/C (dose: 100.0 mg/kg/injection, schedule: Q04DX003 (ip), vehicle: water): 97 % of control
T/C (dose: 200.0 mg/kg/injection, schedule: Q04DX003 (ip), vehicle: water): 92 % of control
T/C (dose: 400.0 mg/kg/injection, schedule: Q04DX003 (ip), vehicle: water): 92 % of control

N#Cc1c(F)c(F)c(Oc2c(F)c(F)c(Oc3c(F)c(F)c(C#N)c(F)c3F)c(F)c2F)c(F)c1F
T/C (dose: 100.0 mg/kg/injection, schedule: Q01DX001 (ip), vehicle: Klucel (hydroxypropylcellulose) (HPC)): 97 % of control
T/C [9]: 94 % of control
T/C (dose: 200.0 mg/kg/injection, schedule: Q01DX001 (ip), vehicle: Klucel (hydroxypropylcellulose) (HPC)): 97 % of control
T/C [10]: 94 % of control
T/C (dose: 400.0 mg/kg/injection, schedule: Q01DX001 (ip), vehicle: Klucel (hydroxypropylcellulose) (HPC)): 89 % of control
T/C [11]: 92 % of control

O=C(NCCS)c1ccc(C(=O)NCCS)cc1
T/C [3]: 95 % of control
T/C [4]: 103 % of control
T/C [5]: 103 % of control

O=C(Nc1ccccc1C(=O)N/N=C/CCc1ccccc1)c1ccccc1Cl
T/C (dose: 100.0 mg/kg/injection, schedule: Q01DX009 (ip), vehicle: Klucel (hydroxypropylcellulose) (HPC)): 101 % of control
T/C (dose: 200.0 mg/kg/injection, schedule: Q01DX009 (ip), vehicle: Klucel (hydroxypropylcellulose) (HPC)): 97 % of control
T/C (dose: 400.0 mg/kg/injection, schedule: Q01DX009 (ip), vehicle: Klucel (hydroxypropylcellulose) (HPC)): 92 % of control

CNCC(O)c1ccccc1 (configuration not stated)
T/C (dose: 100.0 mg/kg/injection, schedule: Q01DX001 (ip), vehicle: saline): 96 % of control
T/C [2]: 94 % of control
T/C (dose: 200.0 mg/kg/injection, schedule: Q01DX001 (ip), vehicle: saline): 97 % of control
T/C (dose: 200.0 mg/kg/injection, schedule: Q04DX003 (ip), vehicle: saline): 96 % of control
T/C (dose: 400.0 mg/kg/injection, schedule: Q01DX001 (ip), vehicle: saline): 92 % of control
T/C (dose: 400.0 mg/kg/injection, schedule: Q04DX003 (ip), vehicle: saline): 100 % of control

COC(=O)c1ncn(/C=C/c2ccccc2)c1C(=O)O
T/C [9]: 92 % of control
T/C [10]: 91 % of control
T/C [11]: 87 % of control

CN(C)CCC(C(=O)N(C)C)(c1ccccc1)c1ccccc1
T/C (dose: 75.0 mg/kg/injection, schedule: Q01DX001 (ip), vehicle: carboxymethylcellulose (CMC)): 94 % of control
T/C (dose: 150.0 mg/kg/injection, schedule: Q01DX001 (ip), vehicle: carboxymethylcellulose (CMC)): 97 % of control
